“And” between values parts separate entries of the source, which are not always exact repeats. Identical values can stand only once. Toxic doses and inconclusive results are not listed. Cut-off read from the data, not from the text of the source: active = T/C of 150% or more; inactive = T/C below 125%.
Tested on: L1210 leukemia ip in BDF1 mice, survival T/C
Test: NCI In Vivo Anticancer Drug Screen. Data for tumor model L1210 Leukemia (intraperitoneal) in B6D2F1 (BDF1) mice
Conditions: endpoint: mean survival time, higher = longer survival
How it was run: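 Value reflects the ratio of survival in compound-treated mice to survival in vehicle-treated controls, with both groups carrying the same transplanted tumor.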

[1] = dose: 100.0 mg/kg/injection, schedule: Q01DX009 (ip), vehicle: Klucel (hydroxypropylcellulose) (HPC)
[2] = dose: 100.0 mg/kg/injection, schedule: Q04DX003 (ip), vehicle: Klucel (hydroxypropylcellulose) (HPC)
[3] = dose: 200.0 mg/kg/injection, schedule: Q01DX009 (ip), vehicle: Klucel (hydroxypropylcellulose) (HPC)
[4] = dose: 200.0 mg/kg/injection, schedule: Q04DX003 (ip), vehicle: Klucel (hydroxypropylcellulose) (HPC)
[5] = dose: 400.0 mg/kg/injection, schedule: Q01DX009 (ip), vehicle: Klucel (hydroxypropylcellulose) (HPC)
[6] = dose: 400.0 mg/kg/injection, schedule: Q04DX003 (ip), vehicle: Klucel (hydroxypropylcellulose) (HPC)
[7] = dose: 100.0 mg/kg/injection, schedule: Q01DX009 (ip), vehicle: saline with Tween-80
[8] = dose: 200.0 mg/kg/injection, schedule: Q01DX009 (ip), vehicle: saline with Tween-80
[9] = dose: 100.0 mg/kg/injection, schedule: Q04DX003 (ip), vehicle: saline with Tween-80
[10] = dose: 200.0 mg/kg/injection, schedule: Q04DX003 (ip), vehicle: saline with Tween-80
[11] = dose: 100.0 mg/kg/injection, schedule: Q01DX009 (ip), vehicle: saline
[12] = dose: 100.0 mg/kg/injection, schedule: Q04DX003 (ip), vehicle: saline
[13] = dose: 200.0 mg/kg/injection, schedule: Q04DX003 (ip), vehicle: saline
[14] = dose: 50.0 mg/kg/injection, schedule: Q01DX001 (ip), vehicle: saline
[15] = dose: 100.0 mg/kg/injection, schedule: Q01DX001 (ip), vehicle: saline
[16] = dose: 200.0 mg/kg/injection, schedule: Q01DX001 (ip), vehicle: saline
[17] = dose: 400.0 mg/kg/injection, schedule: Q01DX001 (ip), vehicle: saline

Measured: T/C

COc1ccc(OC)c(NC(=S)N/N=C(/C)c2cc(Cl)c(C)cc2O)c1
inactive: dose: 12.5 mg/kg/injection, schedule: Q04DX002 (ip), vehicle: Klucel (hydroxypropylcellulose) (HPC) 112 % of control | dose: 25.0 mg/kg/injection, schedule: Q04DX002 (ip), vehicle: Klucel (hydroxypropylcellulose) (HPC) 97 % of control | dose: 50.0 mg/kg/injection, schedule: Q04DX002 (ip), vehicle: Klucel (hydroxypropylcellulose) (HPC) 97 % of control

CCCCC(CC)CCC(O)CC(C)C (configuration not stated)
inactive: dose: 50.0 mg/kg/injection, schedule: Q04DX003 (ip), vehicle: Klucel (hydroxypropylcellulose) (HPC) 91 % of control | [1] 104 % of control | [2] 92 % of control | [3] 101 % of control | [4] 97 % of control | [5] 89 % of control | [6] 96 % of control

O=C(Nc1ccc(Cl)cc1Cl)OCCOc1ccc([N+](=O)[O-])cc1
inactive: dose: 50.0 mg/kg/injection, schedule: Q01DX009 (ip), vehicle: saline with Tween-80 102 % of control | [7] 98 % of control | [8] 93 % of control

COC(=O)C1c2ccoc2CC2C1C(O)C(O)C1C(C)(C)CCCC21C (configuration not stated)
inactive: dose: 50.0 mg/kg/injection, schedule: Q04DX003 (ip), vehicle: saline with Tween-80 103 % of control | [9] 95 % of control | [10] 95 % of control

CC(C)NC(=O)C1C2CCC(CC2)C1C(=O)NC(C)C (configuration not stated)
inactive: [9] 96 % of control | [10] 86 % of control | dose: 400.0 mg/kg/injection, schedule: Q04DX003 (ip), vehicle: saline with Tween-80 86 % of control

Cc1cc([N+](=O)[O-])ccc1I
inactive: dose: 50.0 mg/kg/injection, schedule: Q01DX001 (ip), vehicle: carboxymethylcellulose (CMC) 101 % of control | dose: 100.0 mg/kg/injection, schedule: Q01DX001 (ip), vehicle: carboxymethylcellulose (CMC) 95 % of control | dose: 200.0 mg/kg/injection, schedule: Q01DX001 (ip), vehicle: carboxymethylcellulose (CMC) 95 % of control | dose: 400.0 mg/kg/injection, schedule: Q01DX001 (ip), vehicle: carboxymethylcellulose (CMC) 90 % of control

CNC(=O)Oc1c([N+](=O)[O-])c([N+](=O)[O-])cc2ccccc12
inactive: dose: 75.0 mg/kg/injection, schedule: Q01DX001 (ip), vehicle: other 100 % of control

Cc1cc(NC(=O)NCc2ccc(N)cc2)ccc1S(=O)(=O)F
inactive: [11] 95 % of control | [12] 100 % of control | dose: 200.0 mg/kg/injection, schedule: Q01DX009 (ip), vehicle: saline 114 % of control | [13] 96 % of control | dose: 400.0 mg/kg/injection, schedule: Q01DX009 (ip), vehicle: saline 93 % of control | dose: 400.0 mg/kg/injection, schedule: Q04DX003 (ip), vehicle: saline 100 % of control

CC(C)(C)NC(=O)NCc1ccc(Cl)c(Cl)c1
inactive: [1] 92 % of control | [3] 93 % of control | [5] 98 % of control

NNC(=O)c1ncn(C2OC(CO)C(O)C2O)c1C(=O)NN (configuration not stated)
inactive: [14] 102 % of control | [15] 98 % of control | [16] 102 % of control | [17] 98 % of control

CC(CO)(C(=O)O)c1ccccc1 (configuration not stated)
inactive: dose: 55.0 mg/kg/injection, schedule: Q01DX Z (ip), vehicle: saline 103 % of control | dose: 83.0 mg/kg/injection, schedule: Q01DX Z (ip), vehicle: saline 96 % of control | dose: 125.0 mg/kg/injection, schedule: Q01DX Z (ip), vehicle: saline 94 % of control

CC1(CO)CC2CCC1C2 (configuration not stated)
inactive: [2] 104 % of control | [4] 108 % of control | [6] 106 % of control

CN1CCC(CO)(c2ccccc2)C1 (configuration not stated)
inactive: dose: 75.0 mg/kg/injection, schedule: Q01DX001 (ip), vehicle: carboxymethylcellulose (CMC) 96 % of control | dose: 150.0 mg/kg/injection, schedule: Q01DX001 (ip), vehicle: carboxymethylcellulose (CMC) 98 % of control

COC1c2cnc(C)n2C=CN1C(C)=O (configuration not stated)
inactive: dose: 25.0 mg/kg/injection, schedule: Q01DX009 (ip), vehicle: saline 102 % of control | dose: 50.0 mg/kg/injection, schedule: Q01DX009 (ip), vehicle: saline 100 % of control | [11] 91 % of control | [12] 108 % of control | [13] 98 % of control

NC(N)=N/N=C(C(=O)O)/C(=N\N=C(N)N)C(=O)O
inactive: dose: 30.0 mg/kg/injection, schedule: Q01DX Z (oral), vehicle: carboxymethylcellulose (CMC) 101 % of control | dose: 60.0 mg/kg/injection, schedule: Q01DX Z (oral), vehicle: carboxymethylcellulose (CMC) 101 % of control | dose: 120.0 mg/kg/injection, schedule: Q01DX Z (oral), vehicle: carboxymethylcellulose (CMC) 101 % of control | dose: 240.0 mg/kg/injection, schedule: Q01DX Z (oral), vehicle: carboxymethylcellulose (CMC) 109 % of control | dose: 480.0 mg/kg/injection, schedule: Q01DX Z (oral), vehicle: carboxymethylcellulose (CMC) 106 % of control | dose: 960.0 mg/kg/injection, schedule: Q01DX Z (oral), vehicle: carboxymethylcellulose (CMC) 106 % of control

CC1CC(C)(C)N=C(c2cccc(Br)c2)O1 (configuration not stated)
inactive: [7] 103 % of control | [8] 103 % of control | dose: 400.0 mg/kg/injection, schedule: Q01DX009 (ip), vehicle: saline with Tween-80 92 % of control

Cc1csc2c1c(N)nc(=O)n2C1OC(CO)C(O)C1O (configuration not stated)
inactive: dose: 100.0 mg/kg/injection, schedule: Q01DX005 (ip), vehicle: saline 112 % of control | dose: 200.0 mg/kg/injection, schedule: Q01DX005 (ip), vehicle: saline 102 % of control

O=P(Cc1ccccc1)(C(O)c1ccccc1)C(O)c1ccccc1 (configuration not stated)
inactive: [2] 87 % of control | [4] 91 % of control

O=c1[nH]c2ccccc2n1C1OC(CO)C(O)C1O (configuration not stated)
inactive: [15] 98 % of control | [16] 93 % of control | [17] 100 % of control

O=C(O)c1ccc[nH]1
inactive: dose: 100.0 mg/kg/injection, schedule: Q04DX002 (ip), vehicle: saline with Tween-80 102 % of control | dose: 200.0 mg/kg/injection, schedule: Q04DX002 (ip), vehicle: saline with Tween-80 87 % of control | dose: 400.0 mg/kg/injection, schedule: Q04DX002 (ip), vehicle: saline with Tween-80 98 % of control

CCCCC(=O)N(C(C)C)C(C)C
inactive: dose: 50.0 mg/kg/injection, schedule: Q01DX009 (ip), vehicle: carboxymethylcellulose (CMC) 94 % of control and 103 % of control | dose: 100.0 mg/kg/injection, schedule: Q01DX009 (ip), vehicle: carboxymethylcellulose (CMC) 97 % of control and 102 % of control | dose: 100.0 mg/kg/injection, schedule: Q04DX002 (ip), vehicle: carboxymethylcellulose (CMC) 95 % of control and 98 % of control | dose: 200.0 mg/kg/injection, schedule: Q04DX002 (ip), vehicle: carboxymethylcellulose (CMC) 95 % of control

NC(CC1C=CC=CC1)C(=O)O (configuration not stated)
inactive: [14] 108 % of control | [15] 102 % of control | [16] 98 % of control | [17] 96 % of control
